Test results as given in patent US20260041703A1, “HYPERBRANCHED DEXTRINS FOR TOPICAL USE IN THE PREVENTION OR TREATMENT OF AT LEAST ONE SYMPTOM OF SKIN INFLAMMATION” (ROQUETTE FRERES, priority 2022, published 2026).

Columns and labels:
[1] = tested on: IL-1α; assay: Semi-quantitative fluorescence cytokine array (Human Cytokine Array G3), IL-1α; assay type: cell-based; details: 0.5% SLS positive control (6 hours); fluorescent signal intensity
Description: (§1) Cell culture supernatants collected after epidermal treatment are tested using the Human Cytokine Array G3 kit (RayBiotech).
(§2) On a glass slide containing the different specific antibodies, supernatants are deposited at a rate of 100 μL per well. A cocktail of biotin-coupled secondary antibodies is then added. With the addition of streptavidin, signal intensities are detected by fluorescence. Each step is followed by several washes.
(§3) The ratios (fluorescent signal intensity of the marker in the presence of the samples/fluorescent signal intensity of the marker in the untreated control) were calculated for each treatment from n=3 epidermal culture supernatants (except for the untreated control, n=2).
(§4) A ratio >1.5 reflects overexpression of the inflammatory marker.
(§5) A ratio <0.65 indicates underexpression of the inflammatory marker.
(§6) According to the supplier's criteria, signals are usable when they are greater than the average of the background noise+2SD.

[2] = tested on: IL-1β; assay: Semi-quantitative fluorescence cytokine array (Human Cytokine Array G3), IL-1β; assay type: cell-based; details: 0.5% SLS positive control (6 hours)
Description: as §1, §2, §3, §4, §5, §6

[3] = tested on: RANTES; assay: Semi-quantitative fluorescence cytokine array (Human Cytokine Array G3), RANTES; assay type: cell-based; details: 0.5% SLS positive control (6 hours)
Description: as §1, §2, §3, §4, §5, §6

[4] = tested on: reconstructed human epidermis (normal human epidermal keratinocytes, NHEK); assay: MTT cell proliferation (viability) test on 2D reconstructed human epidermis after SLS inflammation; assay type: cell-based; details: % of untreated control
Description: Irritating chemical compounds are able to penetrate the stratum corneum and are cytotoxic to cells in the underlying layers. […] Cell viability is measured upon metabolism, by mitochondrial succinic dehydrogenase, of the vital dye MTT [3-(4,5-dimethylthiazol-2-yl)-2,5-bromide diphenyltetrazolium, thiazolyl blue; EINECS number 206-069-5, CAS number 298-93-1)], to a blue formazan salt which is measured quantitatively after its extraction from tissues.
The colored solution is measured spectrophotometrically at 570 nm using the Molecular Devices Vmax microplate reader, and absorbance values are recorded using the SOFTmax PRO v4.7.1 software. Statistical analysis is performed using GraphPad Prism v5.03 software.
Cytotoxicity of samples was tested using the epidermis model and is expressed as a percentage of untreated control (UTC) tissue.

[5] = tested on: IL-8; assay: ELISA assay of inflammation marker IL-8 in supernatant of 2D reconstructed human epidermis; assay type: cell-based; details: 0.5% SLS positive control (6 hours)
From the text: After washing, HRP-streptavidin is deposited in the wells. […] The inflammatory response is interpreted as a sample-to-untreated ratio greater than or equal to 2.
A ratio greater than or equal to 2 reflects overexpression of the inflammatory marker while a ratio less than 2 indicates non-expression of the inflammatory marker.

[6] = tested on: IL-1α; assay: ELISA assay of inflammation marker IL-1α in supernatant of 2D reconstructed human epidermis; details: 0.5% SLS positive control (6 hours)
Description: This model comprises a monolayer of normal human epidermal keratinocytes (NHEK, one of the main cell types of the skin), which have been cultured on inert polycarbonate inserts.
The epidermises were treated with a 0.5% aqueous solution of Sodium Lauryl Sulfate (SLS) for 6 hours to create inflammation of the reconstructed epidermis, then the surface of the epidermises was rinsed with 500 μL of PBS. 20 μL of different concentrations of hydrogenated and highly branched dextrins (10 and 5% in ultrapure water) and 0.05% Betamethasone cream (Biogaran cream, a corticoid with an anti-inflammatory role) were applied topically to the epidermis for 20 hours at 37° C. No application was made for the SLS control within 20 hours of rinsing with PBS. […]
For this, cell supernatants are collected after the required treatment time and commercially available ELISA kits are used to quantitatively determine the presence of inflammatory markers.
These ELISA kits are designed for quantitative measurement of the aforementioned markers, particularly in culture supernatants using specific human antibodies. […] A developer solution changes the color from blue to yellow, and its intensity is measured at 450 nm using the Molecular Devices Vmax microplate reader. Absorbance values are recorded and analyzed using SOFTmax PRO v4.7.1 software. […]

[7] = tested on: VEGF; assay: Semi-quantitative fluorescence cytokine array (Human Cytokine Array G3), VEGF; assay type: cell-based; details: 0.5% SLS positive control (6 hours)
Description: as §1, §2, §3, §4, §5, §6

[8] = tested on: 3D reconstructed human epidermis; assay: Membrane integrity (LDH release, colorimetry) in 3D reconstructed human epidermis model; assay type: cell-based
From the text: The aim of the study was to assess the membrane integrity of skin cells in a three-dimensional (3D) reconstructed human epidermis model, by measuring the amount of the enzyme lactate dehydrogenase (LDH) in the culture supernatant, using colorimetry. LDH is an enzyme that is released in the event of cell death. The absence of LDH secretion is a sign that the integrity of epidermal cell membranes is preserved. Samples of 3D reconstructed human epidermis were immersed in an aqueous solution containing 0.5% by weight of sodium lauryl sulfate, for 6 hours. […] The amount of LDH secreted into the supernatant was then determined colorimetrically.

CCCCCCCCCCCCOS(=O)(=O)[O-].[Na+] [SLS, Sodium Lauryl Sulfate]
IL-1α Sample/Untreated ratio [1]: 2.3
IL-1β Sample/Untreated ratio [2]: 0.8
RANTES Sample/Untreated ratio [3]: 6.7
Viability % ([4]; 0.5% SLS positive control (6 hours)): 82.1%
Viability % ([4]; 2% SLS positive control, mean of 3 replicates): 0.9%
IL-8 Sample:Untreated ratio [5]: 3.2
IL-8 assayed quantity [5]: (453 pg/mL)
IL-1a Sample:Untreated ratio [6]: 2.3
IL-1a assayed quantity [6]: (61 pg/mL)
VEGF Sample/Untreated ratio [7]: 1.9

C[C@H]1C[C@H]2[C@@H]3CCC4=CC(=O)C=C[C@]4(C)[C@@]3(F)[C@@H](O)C[C@]2(C)[C@@]1(O)C(=O)CO [betamethasone]
Membrane integrity (%) ([8]; 0.5% SLS (6 hours) + 0.5% betamethasone (20 hours)): 110.7%

CC(C)=CCC[C@](C)(O)C1CC=C(C)CC1 (stereo partly drawn) [bisabolol]
Membrane integrity (%) ([8]; 0.5% SLS (6 hours) + 0.5% bisabolol (20 hours)): 16.8%
